Measurements as given in US12479927B2, “Compounds comprising cleavable linker and uses thereof” (priority 2017, dated 2025).
Where two headings read alike, the source gives them in different places.

What was measured:
[1] = tested on: KB cancer cells; assay: cells; format: cell-based
Method: KB cancer cells were collected and seeded in 24-well plates at a density of 30,000 cells per well in 2 mL of medium, and cultured for 24 hours. Then, the serial dilutions of compound C-1 obtained in Example 108 were treated from 30 nM to 0.0096 nM, the serial dilutions of compound C-2 obtained in Example 109 were treated from 1000 nM to 0.32 nM, serial dilutions of the compound C-3 obtained in Example 110 and the compound C-7 obtained in Example 114 were treated from 25 nM to 0.0016 nM, and serial dilutions of the drug MMAF-OMe were treated from 10 nM to 0.0097 nM. The serial dilutions of compounds C-5 and C-6 obtained in Example 112 and Example 113 were treated from 100 nM to 0.0001 nM, and the serial dilutions of drug seco-DUBA were treated from 100 nM to 0.001 nM. Serial dilutions of the compounds C-4 and C-9 obtained in Example 111 and Example 116 were treated from 1000 nM to 0.001 nM, and the serial dilutions of drug CBI dimer were treated by from 10 nM to 0.00001 nM. Serial dilutions of the compound C-8 obtained in Example 115 and the drug CBI-indole were treated from 100 nM to 0.0001 nM. After 72 hours, 96 hours, or 144 hours of incubation, 0.2 mL of 3-(4,5-dimethylthiazol-2-yl)-2,5-diphenyltetrazolium bromide (MTT) dye, dissolved in PBS buffer solution (5 mg/mL), was added to each well of the plates. The formazans formed by reduction of the MTT dye by mitochondrial oxidoreductases in the living cells were dissolved in DMSO, and measured using the absorbance at 550 nm.

[2] = target: Escherichia coli β-galactosidase (Escherichia coli, UniProt P00722); assay: in vitro; details: recombinant enzyme, pH 7.4
Method: Method 1. Escherichia coli β-galactosidase
MPS used as a standard material was dissolved in PBS buffer solution to make 500 uM solution. […] This was followed by the addition of enzyme solution (14 μL of 1 mg/mL). When comparing with human β-galactosidase, 21 μL of enzyme solution (1 mg/mL) was added to achieve the same molar concentration, and the compound of the present invention and MPS each having an amount of 140 μL and […] of the buffer solution (pH 7.4) were mixed. The resulting reaction mixture was incubated at 37° C. Escherichia coli β-galactosidase enzyme (Sigma G4155) was used in the reaction mixture. The enzyme reaction solution was aliquoted at 0 min before the reaction and at a predetermined time after the reaction, respectively, wherein each aliquot was 70 μL. Then, the remaining compound of the present invention or MPS, and a material liberated by the enzyme reaction were quantitatively analyzed by HPLC.

[3] = MTT, 72 hours, 96 hours, or 144 hours of incubation, read-out: KB cell IC50

Escherichia coli β-galactosidase, sequence (P00722 2-1024): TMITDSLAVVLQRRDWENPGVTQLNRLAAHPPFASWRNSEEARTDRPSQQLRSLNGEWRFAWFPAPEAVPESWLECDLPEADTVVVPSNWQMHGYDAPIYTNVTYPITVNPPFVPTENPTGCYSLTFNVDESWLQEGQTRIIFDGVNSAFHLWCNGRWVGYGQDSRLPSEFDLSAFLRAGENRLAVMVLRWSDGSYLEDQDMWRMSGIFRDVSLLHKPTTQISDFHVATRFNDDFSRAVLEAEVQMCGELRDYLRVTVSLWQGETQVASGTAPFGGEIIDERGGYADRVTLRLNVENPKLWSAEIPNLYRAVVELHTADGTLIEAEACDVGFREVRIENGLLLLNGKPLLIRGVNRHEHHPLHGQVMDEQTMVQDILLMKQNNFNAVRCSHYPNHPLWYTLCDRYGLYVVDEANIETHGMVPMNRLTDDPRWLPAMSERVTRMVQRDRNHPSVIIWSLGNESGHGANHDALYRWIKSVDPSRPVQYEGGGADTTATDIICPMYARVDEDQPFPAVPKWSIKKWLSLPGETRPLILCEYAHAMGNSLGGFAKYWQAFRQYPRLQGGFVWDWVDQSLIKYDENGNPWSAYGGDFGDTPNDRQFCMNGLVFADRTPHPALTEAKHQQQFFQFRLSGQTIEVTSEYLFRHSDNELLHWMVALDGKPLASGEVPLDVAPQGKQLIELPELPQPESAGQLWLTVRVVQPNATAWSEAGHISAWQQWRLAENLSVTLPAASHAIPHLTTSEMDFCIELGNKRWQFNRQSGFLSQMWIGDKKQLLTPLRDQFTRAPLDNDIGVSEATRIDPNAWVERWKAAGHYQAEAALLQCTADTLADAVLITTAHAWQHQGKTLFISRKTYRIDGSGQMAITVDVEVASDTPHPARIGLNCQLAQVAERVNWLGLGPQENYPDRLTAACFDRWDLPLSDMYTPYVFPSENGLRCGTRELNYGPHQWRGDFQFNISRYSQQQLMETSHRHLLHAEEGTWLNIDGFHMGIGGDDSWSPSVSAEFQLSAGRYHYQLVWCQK

Row | SMILES | half-life at 100 μM [2] [min] | also measured
1 | COc1cc2[nH]c(C(=O)N3C[C@@H](CCl)c4c3cc(OS(=O)(=O)Oc3cc(C(=O)NCCOCCOCCOCCn5cc(CCC(=O)N[C@H](CCCCN)C(=O)NCCOCCOCCNC(=O)CC[C@@H](NC(=O)c6ccc(NCc7cnc8nc(N)[nH]c(=O)c8n7)cc6)C(=O)O)nn5)ccc3O[C@@H]3O[C@H](CO)[C@H](O)[C@H](O)[C@H]3O)c3cccc(C)c43)cc2cc1OCCN(C)C [Compound C-8] |  | IC50 [1, 3]: 0.12 nM
2 | NCCCC[C@@H](NC(=O)CCc1cn(CCOCCOCCOCCNC(=O)c2ccc(O[C@@H]3O[C@H](CO)[C@H](O)[C@H](O)[C@H]3O)c(OS(=O)(=O)Oc3cc4c(c5ccccc35)[C@H](CCl)CN4C(=O)CCCC(=O)N3C[C@@H](CCl)c4c3cc(O[C@@H]3O[C@H](CO)[C@H](O)[C@H](O)[C@H]3O)c3ccccc43)c2)nn1)C(=O)NCCOCCOCCNC(=O)CC[C@@H](NC(=O)c1ccc(NCc2cnc3nc(N)[nH]c(=O)c3n2)cc1)C(=O)O [Compound C-4] |  | IC50 [1, 3]: 0.02 nM
3 | CC(=O)Oc1cc2c(c3ccccc13)[C@H](CCl)CN2C(=O)CCCC(=O)N1C[C@@H](CCl)c2c1cc(OS(=O)(=O)Oc1cc(C(=O)NCCOCCOCCOCCn3cc(CCC(=O)N[C@H](CCCCN)C(=O)NCCOCCOCCNC(=O)CC[C@@H](NC(=O)c4ccc(NCc5cnc6nc(N)[nH]c(=O)c6n5)cc4)C(=O)O)nn3)ccc1O[C@@H]1O[C@H](CO)[C@H](O)[C@H](O)[C@H]1O)c1ccccc21 [Compound C-9] |  | IC50 [1, 3]: 0.1 nM
4 | CC(OCN(CCN(C)C)C(=O)OCc1ccc(OS(=O)(=O)Oc2ccccc2OC2O[C@H](CO)[C@H](O)[C@H](O)[C@H]2O)cc1)c1ccccc1 (stereo partly drawn) [Compound A-17] | < 1 | 
5 | NCCCC[C@@H](NC(=O)CCc1cn(CCOCCOCCOCCNC(=O)c2ccc(O[C@@H]3O[C@H](CO)[C@H](O)[C@H](O)[C@H]3O)c(OS(=O)(=O)Oc3cc4c(c5ccccc35)[C@H](CCl)CN4C(=O)c3cn4cc(NC(=O)c5ccc(O)cc5)ccc4n3)c2)nn1)C(=O)NCCOCCOCCNC(=O)CC[C@@H](NC(=O)c1ccc(NCc2cnc3nc(N)[nH]c(=O)c3n2)cc1)C(=O)O [Compound C-6] |  | IC50 [1, 3]: 0.45 nM
6 | CCC(C)[C@H]([C@H](CC(=O)N1CCC[C@@H]1[C@@H](OC)[C@H](C)C(=O)NC(Cc1ccccc1)C(=O)O)OC)N(C)C(=O)[C@H](NC(=O)[C@@H](C(C)C)N(C)C(=O)OCc1ccc(OS(=O)(=O)Oc2cc(C(=O)NCCOCCOCCOCCN=[N+]=[N-])ccc2O[C@H]2O[C@H](CO)[C@H](O)[C@H](O)[C@H]2O)cc1)C(C)C (stereo partly drawn) [Compound B-3] | < 10 | 
7 | O=C(Cc1cccnc1)OCc1ccc(OS(=O)(=O)Oc2ccccc2O[C@@H]2O[C@H](CO)[C@H](O)[C@H](O)[C@H]2O)cc1 [Compound A-10] | < 5 | 
8 | Cc1cccc2c(O)cc3c(c12)[C@H](CCl)CN3C(=O)c1cn2cc(NC(=O)c3ccc(O)cc3)ccc2n1 [Seco-DUBA, reference compound] |  | IC50 ([1]; Homo sapiens, KB, MTT, 72 hours, 96 hours, or 144 hours of incubation, read-out: KB cell IC50): 0.18 nM
9 | CC(C)(C)OC(=O)NCCN(CC(=O)O)C(=O)Cn1cnc2c(OCc3ccc(OS(=O)(=O)Oc4ccccc4OC4O[C@H](CO)[C@H](O)[C@H](O)[C@H]4O)cc3)nc(N)nc21 (stereo partly drawn) [Compound A-18] | < 5 | 
10 | COc1ccc(/C=C\c2cc(OC)c(OC)c(OC)c2)cc1OS(=O)(=O)Oc1cc(C(=O)NCCOCCOCCOCCN=[N+]=[N-])ccc1O[C@@H]1O[C@H](CO)[C@H](O)[C@H](O)[C@H]1O [Compound B-7] | < 5 | 
11 | CC(C)(C)OC(=O)NC(Cc1ccc(OS(=O)(=O)Oc2cc(C(=O)NCCOCCOCCOCCN=[N+]=[N-])ccc2O[C@@H]2O[C@H](CO)[C@H](O)[C@H](O)[C@H]2O)cc1)C(=O)O (stereo partly drawn) [Compound A-2] | 3.71 ± 0.22 | 
12 | CSCC[C@H](NC(=O)[C@H](Cc1ccccc1)NC(=O)CNC(=O)CNC(=O)[C@@H](N)Cc1ccc(OS(=O)(=O)Oc2ccccc2OC2O[C@H](CO)[C@H](O)[C@H](O)[C@H]2O)cc1)C(=O)O (stereo partly drawn) [Compound B-9] | < 5 | 
13 | COc1cc2[nH]c(C(=O)N3C[C@@H](CCl)c4c3cc(O)c3cccc(C)c43)cc2cc1OCCN(C)C [CBI-indole, reference compound] |  | IC50 ([1]; Homo sapiens, KB, read-out: KB cell IC50(nM)): 0.07 nM
14 | CC(C)(C)OC(=O)NC(Cc1ccc(OS(=O)(=O)Oc2cc3ccccc3cc2O[C@@H]2O[C@H](CO)[C@H](O)[C@H](O)[C@H]2O)cc1)C(=O)O (stereo partly drawn) [Compound A-12] | < 5 | 
15 | CC(C)(C)OC(=O)NC(Cc1ccc(OS(=O)(=O)Oc2cc(CCC(=O)NCCOCCOCCOCCN=[N+]=[N-])ccc2OC2O[C@H](CO)[C@H](O)[C@H](O)[C@H]2O)cc1)C(=O)O (stereo partly drawn) [Compound A-6] | 4.6 ± 1.72 | 
16 | CCc1c2c(nc3ccc(OS(=O)(=O)Oc4cc(C(=O)NCCOCCOCCOCCn5cc(CCC(=O)N[C@H](CCCCN)C(=O)NCCOCCOCCNC(=O)CC[C@@H](NC(=O)c6ccc(NCc7cnc8nc(N)[nH]c(=O)c8n7)cc6)C(=O)O)nn5)ccc4O[C@@H]4O[C@H](CO)[C@H](O)[C@H](O)[C@H]4O)cc13)-c1cc3c(c(=O)n1C2)COC(=O)[C@]3(O)CC [Compound C-2] |  | IC50 [1, 3]: > 500 nM
17 | Nc1nc(OCc2ccc(OS(=O)(=O)Oc3ccccc3OC3O[C@H](CO)[C@H](O)[C@H](O)[C@H]3O)cc2)c2ncn([C@@H]3O[C@H](CO)C(O)[C@@H]3O)c2n1 (stereo partly drawn) [Compound A-4] | < 5 | 
18 | O=C(OCCc1cccnc1)OCc1ccc(OS(=O)(=O)Oc2ccccc2O[C@@H]2O[C@H](CO)[C@H](O)[C@H](O)[C@H]2O)cc1 [Compound A-9] | < 5 | 
19 | C[C@]12CC[C@@H]3c4ccc(OS(=O)(=O)Oc5cc(C(=O)NCCOCCOCCOCCN=[N+]=[N-])ccc5O[C@@H]5O[C@H](CO)[C@H](O)[C@H](O)[C@H]5O)cc4CC[C@H]3[C@@H]1CC[C@@H]2O [Compound B-6] | < 5 | 
20 | CC/C(=C(\c1ccccc1)c1ccc(OCC[N+](C)(C)Cc2c(OC)cc(OS(=O)(=O)Oc3cc(C(=O)NCCOCCOCCOCCN=[N+]=[N-])ccc3OC3O[C@H](CO)[C@H](O)[C@H](O)[C@H]3O)cc2OC)cc1)c1ccccc1 (stereo partly drawn) [Compound B-11] | < 5 | 
21 | Cc1cn([C@H]2CC(O)[C@@H](CO)O2)c(=O)nc1OCc1ccc(OS(=O)(=O)Oc2ccccc2O[C@@H]2O[C@H](CO)[C@H](O)[C@H](O)[C@H]2O)cc1 (stereo partly drawn) [Compound A-13] | < 5 | 
